Laboratory results published in patent publication US10966426B2, “Herbicidal compositions comprising phenylpyrimidines” (BASF SE, priority 2016, dated 2021).

What was measured:
Type in all cases: in vivo
[1] = tested on: Alopecurus myosuroides; experiment: greenhouse pre-emergence treatment, ALOMY
Outline: (§1)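 Pre-emergence spray of compounds, alone or as combinations formulated as 10% emulsion concentrate in water, directly after sowing in loamy sand (~3.0% humus); pots hooded until rooting, kept at 10-25° C or 20-35° C per species for 2 to 4 weeks. Damage scored 0-100 (100 = no emergence/complete destruction); Colby expected value E=X+Y−(X·Y/100).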

[2] = tested on: Papaver rhoeas; experiment: greenhouse pre-emergence treatment, PAPRH; settings: 20 DAT; for % activity, solo application: Table X6
Outline: as §1

[3] = tested on: Galium aparine; experiment: greenhouse pre-emergence treatment, GALAP; settings: GALAP
Outline: as §1

[4] = tested on: Echinocloa crus-galli; experiment: greenhouse pre-emergence treatment, ECHCG; settings: 20 DAT
Outline: as §1

[5] = tested on: Lolium perenne; experiment: greenhouse post-emergence treatment, LOLPE; settings: 20 DAT, 2nd series of rows
Description: The culture containers used were plastic pots containing loamy sand with approximately 3.0% of humus as substrate. The seeds of the test plants were sown separately for each species.
To this end, the test plants were either sown directly, and grown in the same containers, or they were first grown separately as seedlings and transplanted into the test containers a few days prior to treatment.
Depending on the species, the plants were kept at 10-25° C. and 20-35° C., respectively.
The test period extended over 2 to 4 weeks. During this time, the plants were tended and their response to the individual treatments was evaluated.
Evaluation was carried out using a scale from 0 to 100. 100 means no emergence of the plants, or complete destruction of at least the above-ground parts, and 0 means no damage or normal course of growth. A good herbicidal activity is given at values of at least 70, and very good herbicidal activity is given at values of at least 85.
In the examples, the solvent used was water.
In the examples below, using the method of S. R. Colby (1967) “Calculating synergistic and antagonistic responses of herbicide combinations”, Weeds 15, p. […] E=X+Y−(X·Y/100) where X=effect in percent using herbicide A at an application rate a; • Y=effect in percent using herbicide B at application rate b; • E=expected effect (in %) of herbicide A+herbicide B at application rates a+b.

[6] = tested on: BRAPL; experiment: greenhouse pre-emergence treatment, BRAPL; settings: Table X9, 21 DAT, solo Ex. 5 125 gai/ha
[7] = solo Ex. 5 31.25 gai/ha, 20 DAT

O=C(O)c1nc(C2CC2)ncc1-c1ccccc1Cl [Ex. 5]
% activity ([1]; Table X13, 20 DAT, solo Ex. 5 31.25 gai/ha): 90% | % activity [1, 7]: 90% | % activity ([1]; solo Ex. 5 62.5 gai/ha, 20 DAT): 90% | % activity ([2]; solo Ex. 5 31.25 gai/ha): 0% | % activity, solo application ([2]; 31.25 gai/ha): 20% | % activity, solo application ([2]; 125 gai/ha): 85% | % activity ([2]; solo, 62.5 gai/ha): 70% | % activity, solo application ([3]; 62.5 gai/ha, 20 DAT, Table X1): 0% | % activity, solo application ([3]; 62.5 gai/ha, 20 DAT, Table X2): 0% | % activity, solo application ([3]; 62.5 gai/ha, 20 DAT, Table X6): 0% | % activity, solo application ([3]; 125 gai/ha, 20 DAT, Table X2): 40% | % activity ([3]; Ex. 5 solo, 62.5 gai/ha, 20 DAT): 0% | % activity ([3]; Ex. 5 solo, 125 gai/ha, 20 DAT): 0% | % activity ([3]; 20 DAT, solo Ex. 5 31.25 gai/ha): 0% | % activity ([3]; 20 DAT, solo Ex. 5 62.5 gai/ha): 0% | % activity ([3]; 20 DAT, solo Ex. 5 125 gai/ha): 0% | % activity [3, 7]: 0% | % activity ([3]; solo Ex. 5 62.5 gai/ha, 20 DAT): 0% | % activity ([3]; solo Ex. 5 125 gai/ha, 20 DAT): 0% | % activity ([3]; Table X9, 21 DAT, solo Ex. 5 125 gai/ha): 0% | % activity ([3]; Table X9, 21 DAT, solo Ex. 5 250 gai/ha): 0% | % activity ([3]; Table X10, 20 DAT, solo Ex. 5 62.5 gai/ha): 0% | % activity ([3]; Table X10, 20 DAT, solo Ex. 5 125 gai/ha): 20% | % activity ([3]; Table X10, 20 DAT, solo Ex. 5 250 gai/ha): 35% | % activity ([3]; Table X11, 20 DAT, solo Ex. 5 62.5 gai/ha): 0% | % activity ([3]; Table X11, 20 DAT, solo Ex. 5 125 gai/ha): 0% | % activity ([3]; Table X13, 20 DAT, solo Ex. 5 62.5 gai/ha): 20% | % activity ([3]; Table X13, 20 DAT, solo Ex. 5 125 gai/ha): 35% | % activity ([3]; solo, 31.25 gai/ha, 20 DAT): 0% | % activity ([3]; solo, 62.5 gai/ha, 20 DAT): 0% | % activity ([3]; solo, 125 gai/ha, 20 DAT): 0% | % activity ([3]; solo, 250 gai/ha, 21 DAT): 25% | % activity ([4]; Ex. 5 solo, 62.5 gai/ha): 85% | % activity ([4]; solo, 31.25 gai/ha): 95% | % activity ([4]; solo, 125 gai/ha): 95% | % activity ([5]; solo Ex. 5 15 gai/ha): 85% | % activity ([5]; solo Ex. 5 62.5 gai/ha): 80% | % activity ([5]; solo Ex. 5 250 gai/ha): 85% | % activity ([5]; solo Ex. 5 500 gai/ha): 85% | % activity [6]: 90%
